Among the test systems are OVCAR-5 ovarian; SF-295 CNS; HOP-62 NSCLC; MALME-3M melanoma; KM12 colon; OVCAR-8 ovarian; SK-MEL-2 melanoma; SW-620 colon.
Common to all, as to experiment: DTP human tumour cell line panel, 48 h

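How tested: cells in 96-well plates exposed to compound for 48 hours at five concentrations. GI50: concentration for 50% inhibition of growth. TGI: total growth inhibition.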 Some results are limits rather than exact numbers.

Consider `CCCCCCCCCCCCCCCC(=O)NS(=O)(=O)OC[C@H]1O[C@@H](n2cnc3c(N)ncnc32)[C@H](O)[C@@H]1O`, for which the GI50 (in general, the concentration that inhibits growth by half) in the test on OVCAR-5 ovarian is under 0.0158 µM; in the test with SF-295 CNS, 1.01 µM; in the test with HOP-62 NSCLC, under 0.0198 µM; in the test with MALME-3M melanoma, 0.69 µM; in the test on KM12 colon it was under 0.0421 µM; in the test with OVCAR-8 ovarian, 0.3 µM. Moreover, the GI50 in the test with SK-MEL-2 melanoma was 0.588 µM; in the test with SW-620 colon it was 0.0412 µM. In addition, the total growth inhibition concentration (TGI) (in general, the concentration giving total growth inhibition) with OVCAR-5 ovarian was under 0.0339 µM; in the test on SF-295 CNS, 2.31 µM; with MALME-3M melanoma, 2.22 µM; in the test on KM12 colon it was 3.01 µM; with OVCAR-8 ovarian, 1.28 µM; in the test with SK-MEL-2 melanoma, 2.83 µM. Also, the TGI in the test on SW-620 colon stood at 10.1 µM.
With `C[n+]1cccc(NC(=O)c2ccc3ccc4ccc(C(=O)Nc5ccc[n+](C)c5)nc4c3n2)c1`, the GI50 with OVCAR-5 ovarian was 47.8 µM; in the test on SF-295 CNS, 2.59 µM; in the test on HOP-62 NSCLC, 1.83 µM; in the test with MALME-3M melanoma, over 89.1 µM; in the test on KM12 colon it was 3.08 µM; in the test with OVCAR-8 ovarian it was 9.02 µM. Further, the values for the GI50 in the test on SK-MEL-2 melanoma and in the test with SW-620 colon were 6.71 µM and 2.91 µM, respectively. For the same compound, the TGI with OVCAR-5 ovarian is over 100 µM; with SF-295 CNS, 25.3 µM; in the test with HOP-62 NSCLC it was 97.5 µM; in the test on MALME-3M melanoma, over 100 µM; with KM12 colon, over 100 µM; in the test on OVCAR-8 ovarian, over 100 µM. For the same compound, the concentration for total growth inhibition (TGI) with SK-MEL-2 melanoma and in the test with SW-620 colon was over 100 µM in each case.
Turning to `Nc1c(C(=O)Nc2cccc(Cl)c2)sc2nc3c(cc12)C(O)CCC3` (stereo not given), the GI50 with OVCAR-5 ovarian was 2.89 µM; in the test with SF-295 CNS it was 0.314 µM; with HOP-62 NSCLC, 0.569 µM; in the test on MALME-3M melanoma it was 0.485 µM; in the test with KM12 colon, 0.397 µM; in the test on OVCAR-8 ovarian, 0.714 µM. The values for the GI50 with SK-MEL-2 melanoma and in the test on SW-620 colon were 0.585 µM and 0.48 µM, respectively. In addition, the TGI was 33.9 µM in the test with OVCAR-5 ovarian; 16.3 µM with SF-295 CNS; 23.9 µM in the test with HOP-62 NSCLC; 33.3 µM in the test with MALME-3M melanoma; over 49.9 µM in the test on KM12 colon; 22.9 µM in the test with OVCAR-8 ovarian. In addition, the TGI is 48.6 µM with SK-MEL-2 melanoma and over 89.3 µM in the test on SW-620 colon.
With `COc1ccc2nc3cc([N+](=O)[O-])ccc3c(NCCO)c2c1`, the GI50 with OVCAR-5 ovarian was 5.55 µM; in the test on SF-295 CNS, 3.49 µM; in the test with HOP-62 NSCLC, 2.07 µM; in the test with KM12 colon, 2.17 µM; in the test with OVCAR-8 ovarian it was 3.15 µM; in the test with SW-620 colon, 4.08 µM. Further, the total growth inhibition concentration (TGI) with OVCAR-5 ovarian worked out at 28.1 µM; in the test on SF-295 CNS, 15.7 µM; with HOP-62 NSCLC it was 5.19 µM; in the test on KM12 colon, 6.8 µM; with OVCAR-8 ovarian, 18.8 µM; in the test on SW-620 colon, 25.7 µM.
With `Cn1c2c(c3ccccc31)CCN1C[C@@H]3CCCC[C@H]3C[C@@H]21`, the GI50 in the test on OVCAR-5 ovarian was 3.82 µM; in the test with SF-295 CNS, 2.25 µM; with HOP-62 NSCLC, 3.32 µM; in the test with MALME-3M melanoma, 4.22 µM; in the test on KM12 colon, 2.97 µM; in the test with OVCAR-8 ovarian, 2.84 µM. For the same compound, the GI50 is 5.8 µM in the test on SK-MEL-2 melanoma and 3.43 µM in the test on SW-620 colon. Also, the TGI is over 100 µM with OVCAR-5 ovarian; 6.58 µM with SF-295 CNS; over 36.2 µM in the test on HOP-62 NSCLC; over 55.8 µM with MALME-3M melanoma; 9.97 µM with KM12 colon; over 30.2 µM with OVCAR-8 ovarian. Also, the concentration for total growth inhibition (TGI) in the test with SK-MEL-2 melanoma was over 26.7 µM; in the test on SW-620 colon it was over 100 µM.
As for `CCN1CCN(Cc2ccc(Nc3ncc(F)c(-c4cc(F)c5nc(C)n(C(C)C)c5c4)n3)nc2)CC1`, the GI50 in the test with OVCAR-5 ovarian is 8.53 µM; with SF-295 CNS, 0.0882 µM; in the test with HOP-62 NSCLC, 6.68 µM; with MALME-3M melanoma it was 0.0557 µM; in the test with KM12 colon it was 0.56 µM; in the test on OVCAR-8 ovarian, 9.58 µM. In addition, the GI50 in the test on SK-MEL-2 melanoma was over 50 µM; with SW-620 colon it was 0.192 µM. The TGI in the test with OVCAR-5 ovarian was 50 µM; with SF-295 CNS it was 9.08 µM; in the test on HOP-62 NSCLC it was 13.8 µM; in the test with MALME-3M melanoma it was 10.5 µM; in the test on KM12 colon, 9.29 µM; in the test with OVCAR-8 ovarian it was 26.2 µM. Besides, the TGI with SK-MEL-2 melanoma is over 50 µM; with SW-620 colon it was 11.9 µM.
Turning to `COc1cc(-c2oc3c(OC)c(O)c(OC)c(O)c3c(=O)c2OC)cc(OC)c1OC`, the concentration for total growth inhibition (TGI) in the test on OVCAR-5 ovarian, with SF-295 CNS, with HOP-62 NSCLC, with MALME-3M melanoma, in the test with KM12 colon and in the test with OVCAR-8 ovarian was over 100 µM throughout. The concentration for total growth inhibition (TGI) with SK-MEL-2 melanoma and in the test on SW-620 colon was over 100 µM each time.
For the compound `Nc1nc2ccc(CNc3ccc(C(=O)NC(CC(=O)O)C(=O)O)cc3)cc2c(=O)[nH]1` (stereo not given), the GI50 in the test on OVCAR-5 ovarian is over 47.2 µM; with SF-295 CNS it was 1 µM; in the test with MALME-3M melanoma it was over 33.3 µM; with KM12 colon, 4.3 µM; in the test on OVCAR-8 ovarian, 1.16 µM; with SK-MEL-2 melanoma it was over 100 µM. Further, the GI50 with SW-620 colon was 0.525 µM. Besides, the TGI in the test on OVCAR-5 ovarian is over 100 µM; in the test on SF-295 CNS, over 28.7 µM; with HOP-62 NSCLC it was over 100 µM; with MALME-3M melanoma, over 100 µM; with KM12 colon, over 100 µM; in the test with OVCAR-8 ovarian, over 100 µM. For the same compound, the concentration for total growth inhibition (TGI) in the test with SK-MEL-2 melanoma and in the test with SW-620 colon was over 100 µM throughout.
Consider `COc1ccc2c(c1)OCC1c3cc(OC)c4ccccc4c3OC21` (stereo not given), for which the GI50 was 10.2 µM in the test with OVCAR-5 ovarian; 2 µM with SF-295 CNS; 14.7 µM in the test with HOP-62 NSCLC; 5.01 µM in the test on MALME-3M melanoma; 4.82 µM in the test on KM12 colon; 44.4 µM in the test on OVCAR-8 ovarian. Besides, the GI50 with SK-MEL-2 melanoma was 12.2 µM; in the test on SW-620 colon it was 3.98 µM. Besides, the total growth inhibition concentration (TGI) in the test on OVCAR-5 ovarian was 57 µM; in the test with SF-295 CNS, 6.91 µM; with HOP-62 NSCLC, over 100 µM; in the test on MALME-3M melanoma, over 100 µM; in the test with KM12 colon it was over 100 µM; in the test on OVCAR-8 ovarian, over 100 µM. Further, the results for the total growth inhibition concentration (TGI) in the test on SK-MEL-2 melanoma and with SW-620 colon were 77.7 µM and over 100 µM, respectively.

The record behind these values is PubChem BioAssay (NCI).
